{"source": "patent US20250064773A1", "about": "“TARGETING ERO1 ALPHA WITH AURONE DERIVATIVES” (West Virginia University Board of Governors on behalf of …, priority 2021, published 2025)", "key": {"[1]": {"test_system": "PC-9 non-small cell lung cancer cell line", "test": "MTT viability assay, PC-9", "format": "cell-based", "conditions": "72 hours", "method": "(§1) We utilized an MTT assay to determine the potency of the compounds for inhibiting cell growth. […] We next asked whether T151742 induced inhibition of cell growth was dependent on ERO1α expression. As shown in FIG. 6C two ERO1α deleted clones in the PC-9 cell line were isolated. Using an MTT assay to determine overall cellar viability, a non-targeted control (scramble), and both ERO1α knockout clones was subjected to treatment with T151742 for 72 hours (See FIG. 6D). […] Though only slight differences were observed between T151742 and EN-460 we tested the effects of these compounds in a clonogenic assay which is a better test for inhibition of self-renewal.\n(§2) Cell Lines: PC-9 cell line used was obtained from Sigma Aldrich and grown in RPMI 1640 medium with 10% fetal bovine serum and 1% penicillin/streptomycin. HCC4006, U266, MM1.s, and Beas-2B cell lines were obtained from ATCC and cultured in either RPMI 1640 or DMEM with 10% fetal bovine serum and 1% penicillin/streptomycin. All cell lines were also checked for mycoplasma every six months and subjected to short tandem repeat (STR) analysis for cell line validation. CRISPR Cas9: CRISPR Guide RNA 2 targeting ERO1α and CRISPR Guide RNA 4 were purchased from Genscript in the pLentiCRISPR V2 plasmid containing puromycin/ampicillin selection marker. Lentivirus was made from HEK 293T cells by co-transfection with GuideRNA of interest, pVSVG, and pPAX2 plasmids. Lentivirus was collected after 48 hours and concentrated using 40% PEG8000. […] Plate was then read on the BioTek Cytation 5 at 530/590 nm. […] Plate was then read at 570 nm. Treated wells were all compared to DMSO control wells to calculate percent growth inhibition and the IC50 was calculated using GraphPad (log(inhibitor) vs growth inhibition). […] Images were then quantified using ImageJ. […] Cells were aliquoted at 1 million cells per PCR tube in PBS and heated in Bio-Rad T100 thermal cycler at indicated temperatures (RT, 46° C., 48° C., 50° C., 52° C., 54° C., 56°, 58° C., and 60° C.) for 3 minutes and aggregation temperature was determined by western blot analysis. […]"}, "[2]": {"test_system": "PC-9 ERO1α KO clones (CRISPR)", "test": "MTT viability assay, PC-9 ERO1α knockout clones", "format": "cell-based", "conditions": "72 hours", "method": "as §1, §2"}}, "note": "Like-named read-outs stand apart in the source and are kept apart here.", "data": [{"smiles": "CN(C)c1ccc(/C=C2\\Oc3cc(O)ccc3C2=O)cc1", "note": "[Compound T151742]", "values": [{"measurement": "IC50", "setting": "[1]; read-out: IC50, MTT assay, PC-9", "value": "14.1 ± 3.99", "unit": "µM"}, {"measurement": "IC50", "setting": "[1]; non-targeted control (scramble), read-out: IC50, MTT assay, PC-9 WT", "value": 14.1, "unit": "µM"}, {"measurement": "IC50", "setting": "[2]; read-out: IC50, MTT assay, PC-9 ERO1α KO Clone 1", "value": "32.2 ± 1.09", "unit": "µM"}, {"measurement": "IC50", "setting": "[2]; read-out: IC50, MTT assay, PC-9 ERO1α KO Clone 2", "value": "41.5 ± 1.08", "unit": "µM"}, {"measurement": "fold more resistant, ERO1α deleted cells compared to the control cell line", "setting": "[2]; MTT", "value": "2-3 fold"}]}]}
